Measured values taken from ChEMBL document CHEMBL1129872, “GENISTEIN AND FLUORINATED ANALOGS SUPPRESS AGONIST-INDUCED AIRWAY SMOOTH MUSCLE CONTRACTION” (Bioorg Med Chem Lett, 1997).

How the values were obtained:
Format in all cases: functional
[1] = species on record: Cavia porcellus; assay: The inhibitory activity is expressed as percentage of the maximal contraction induced by 30 mM KCl dependent on extracellular Ca+2 influx at 10e-4 M
[2] = species on record: Cavia porcellus; assay: The inhibitory activity is expressed as percentage of the maximal contraction induced by Ach 3 mM at 3*10e-4 M
[3] = species on record: Cavia porcellus; assay: The inhibitory activity is expressed as percentage of the maximal contraction induced by KCl
[4] = species on record: Cavia porcellus; assay: The inhibitory activity is expressed as percentage of the maximal contraction induced by histamine
[5] = species on record: Cavia porcellus; assay: The -logEC50 value of genistein on ACh-precontracted rings, where EC50 is the concentration causing 50% relaxation
[6] = species on record: Cavia porcellus; assay: The inhibitory activity is expressed as percentage of the maximal contraction induced by 30 mM KCl dependent on extracellular Ca+2 influx at 10e-5 M

| SMILES | Max effect [1] | Max effect [2] | Max effect [3] | Max effect [4] | EC50 [5] [µM] | Max effect [6] |
| --- | --- | --- | --- | --- | --- | --- |
| O=c1c(-c2ccc(F)cc2F)coc2cc(O)cc(O)c12 | 41 | 36 | 78 | 73 | – | – |
| Cn1c(=O)c2[nH]cnc2n(C)c1=O [AMINOPHYLLINE] | – | – | – | – | 525 | – |
| O=c1c(-c2ccc(F)c(F)c2)coc2cc(O)cc(O)c12 | – | 33 | – | – | – | – |
| O=c1c(-c2ccc(F)cc2)coc2cc(O)cc(O)c12 | 36 | 26 | 71 | 69 | – | – |
| CC(C)(C)NCC(O)c1ccc(O)c(CO)c1 (configuration not stated) [ALBUTEROL] | – | – | – | – | 0.0759 | – |
| O=c1c(-c2ccc(O)cc2)coc2cc(O)cc(O)c12 [GENISTEIN] | 79 | 66 | 88 | 98 | 195 | 35 |
